A melting point compilation (Tetko et al.; mined from patent text by program, amines drawn as free bases though some values may be those of a salt)
Residues, ends and D or L forms follow the SMILES beside them.

| Compound | melting point |
| --- | --- |
| O=C1NCc2cc(-c3cnc4[nH]c(=O)n(CC5CCCCC5)c4n3)ccc21 | 337 to 339 °C |
| CCCCS(=O)(=O)NC(CNC(=O)c1cccc(C(=O)C2CCC3(CCNCC3)CC2)c1)C(=O)O (stereo not given) | 155 to 157 °C |
| Nc1cc2[nH]c(=O)[nH]c2c2ccccc12 | 295 to 296 °C |
| Nc1cccc(-c2nc3ncccc3o2)c1 | 179 to 180 °C |
| Cc1cnc2c(c1)COP(=S)(N(C)C)O2 (stereo not given) | 101 to 102 °C |
| COc1cc2cc3c(Nc4ccc(Sc5nccn5C)c(Cl)c4)c(C#N)cnc3cc2cc1OCCn1nccn1 | 235 to 237 °C |
| CCCc1c(OCCCCCOc2ccc3c(=O)cc(C(=O)OCC)oc3c2CCC)ccc(C(C)=O)c1O | 90 to 91 °C |
| COc1cc2cc(C(=O)N3CC(CCl)c4c3cc([N+](=O)[O-])c3cc(S(=O)(=O)NCCO)ccc43)[nH]c2c(OC)c1OC (stereo not given) | 257 to 258 °C |
| CC(C)S(=O)(=O)Nc1cccc(C=C2c3ccccc3CCc3ccccc32)c1 | 188 °C |
| Cn1c(=O)c2c3oc4ccccc4oc3c3[nH]c4cc(O)ccc4c3c2c1=O | 360 °C |
| CC1(C)CS(=O)(=O)CC(C)(C)N1N=O | 184 °C |
| O=C1OC2(CCN(CCC(O)c3ccccc3)CC2)c2ccccc21 (stereo not given) | 144 to 146 °C |
| O=C1C(I)=CC2COC1O2 (stereo not given) | 66 to 67 °C |
| NC(=O)C(CCCC(NC(=O)OCc1ccccc1)C(=O)O)NC(=O)OCc1ccccc1 (stereo not given) | 145 to 150 °C |
| Cc1cc(Cl)nc(NC(=O)NS(=O)(=O)c2ccccc2OC(F)F)n1 | 190 to 191 °C |
| CCc1nnc(CCCOc2c(C)cc(-c3noc(C(F)F)n3)cc2C)s1 | 83 to 84 °C |
| O=C(/C=C/c1ccn(S(=O)(=O)c2ccc(-n3cccn3)cc2)c1)NO | 161 to 167 °C |
| C=C(Sc1ccc(C(C)(C)C)cc1)S(=O)(=O)c1ccc(Cl)cc1 | 74 to 79 °C |

| Compound | melting point |
| --- | --- |
| CC1(C)C(C=C2CC2(F)F)C1C(=O)O (stereo not given) | 78.9 °C |
| O=C(Cc1ccccc1Br)NCC1OC(n2cc(Br)c(=O)[nH]c2=O)CC1O (stereo not given) | 222 to 223 °C |
| CCOC(=O)CCCOc1ccc2nc3c(cc2c1)CC(=O)N3 | 181 °C |
| CC(C)(C)c1ccc(OP2OCC3(CO2)COP(Oc2ccc(C(C)(C)C)cc2C(C)(C)C)OC3)c(C(C)(C)C)c1 (stereo not given) | 174 to 177 °C |
| OCC1OC(c2ccc(Cl)c(Cc3ccc(-c4ccc(F)nc4)s3)c2)C(O)C(O)C1O (stereo not given) | 131 to 134 °C |
| N#Cc1n[nH]c(N)c1SC(F)(F)F | 187 °C |
| O=C(O)CCCCCCCCCCCCCCCBr | 67 to 69 °C |
| COC(=O)c1ccc(C(O)C#Cc2cc(-c3cccs3)c(OC)cc2OC)cc1 (stereo not given) | 128 to 130 °C |
| CCOC(=O)COc1ccc2nc(CC)cc(OCc3ccc(-c4ccccc4-c4nnn(C(c5ccccc5)(c5ccccc5)c5ccccc5)n4)cc3)c2n1 | 146 to 150 °C |
| O=C(N[C@H]1CN2CCC1CC2)C(Cc1ccccc1)c1ccccc1 (stereo not given in full) | 142 °C |
| CC(c1cccnc1)n1c(=O)[nH]c2cc(Cl)ccc21 (stereo not given) | 190 °C |
| O=c1[nH]ncc2[nH]c(-c3ccc(OC(F)F)c(OCC4CC4)c3)cc12 | 294 to 295 °C |
| O=c1[nH]c2ccccc2cc1-c1nnn[nH]1 | 301 to 303 °C |
| CN(CCCc1c(N)nc(N)[nH]c1=O)c1ccc(C(=O)N[C@@H](CCC(=O)O)C(=O)O)cc1 | 190 to 200 °C |
| CCN(CC)C(=O)c1ccc(C)c(-c2nc(S(C)(=O)=O)nc3c2CNC(=O)N3c2c(F)cccc2F)c1 | 132 to 135 °C |
| Cc1ccc(-n2nc3c4cc(/C=C/C(=O)OCc5ccccc5)ccc4[nH]c(=O)n3c2=O)cc1 | 242 °C |
| NC(=O)CCC(N)C(=O)NCC(=O)NCC(=O)NC(CO)C(=O)NC(CC(N)=O)C(=O)NC(Cc1ccccc1)C(N)=O (stereo not given) (H-QGGSNF-NH2; configuration not given here) | 202 to 204 °C |

Results, then the compound that gave them:

| melting point | Compound |
| --- | --- |
| 79 to 81 °C | CN(C)C=Nc1c(Cl)cc(N=Cc2ccccc2F)cc1Cl |
| 114 °C | O=c1c2ccccc2nnn1CCO |
| 240 °C | c1ccc2c(c1)c(-c1cc3nccnc3[nH]1)cn2CCCN1CCCCC1 |
| 182 °C | CC(SC1COC(c2ccc(C(=O)Nc3c(F)c(F)c(C#N)c(F)c3F)cc2)OC1)C(O)(Cn1cncn1)c1ccc(F)cc1F (stereo not given) |
| 183 to 185 °C | C[C@]12CCC(=O)N[C@@H]1CCc1cc(Sc3ccccc3)ccc12 |
| 151 to 152 °C | Cn1c(Br)c(Br)c(C#N)c1Br |
| 153 to 155 °C | CC(=O)NC1=C(N2CCN(Cc3ccccc3)CC2)C(=O)c2ccccc2C1=O |
| 233 to 235 °C | COc1cc(NS(=O)(=O)c2ccc(N3CCNC3=O)cc2)cc(OC)c1OC |
| 68 to 80 °C | COCCN1CCc2ccc(OC)c(Nc3ncc(Cl)c(Nc4ccc(N5CCOCC5)cc4OC)n3)c2CC1 |
| 231 °C | N#Cc1c(Cl)c2ccccc2n(Cc2ccc(F)cc2)c1=O |
| 140 to 142 °C | Nc1c2c(nn1-c1ccc(Cl)cc1)CCCC2 |
| 192 to 194 °C | Nc1nc(Cl)cc(NCC2(CO)CCC2)n1 |
| 187 to 188 °C | Cc1cc(NC(=S)Nc2cc(Cl)ccc2C)sn1 |
| 158 to 161 °C | Cc1cccc(NC(=O)NCc2ccc(-c3n[nH]c4c3Cc3cc(CN5CCOCC5)ccc3-4)s2)c1 |
| 125 to 127 °C | CN(C)C(N)=Nc1cc(C#N)ccc1N1CCOCC1 |
| 174 °C | O=C(Nc1ccc2[nH]ncc2c1)c1ccccc1NCC1CCOCC1 |
| 158 to 161 °C | CCOC(=O)c1cc(=O)c2c(OCCOc3ccc([N+](=O)[O-])cc3)cccc2o1 |
| 190 °C | COc1ccc(I)c2c1CC(NC(C)=O)CC2 (stereo not given) |

| melting point | Compound |
| --- | --- |
| 112 °C | CC(C)(C)c1ccc(O[C@@H]2CCC[C@H]2O)c(C(C)(C)C)c1 (relative stereo) |
| 126 to 127 °C | CCOC(=O)C1CCc2c(n(C)c3ccc(Cl)cc23)C1 (stereo not given) |
| 158 to 161 °C | COC(=O)c1ccc(NCc2ccc(Cl)c(Cl)c2)cn1 |
| 135 to 137 °C | O=C(NC(=O)C(c1ccccc1)c1ccccc1)OCCN1CCOCC1 |
| 120 to 122 °C | c1cncc(NCCCOc2cccc(CN3CCCCC3)c2)c1 |
| 117 to 119 °C | CCOC(=O)C(Br)C(=O)Nc1ccc(Cl)cc1 (stereo not given) |
| 150 to 154 °C | ON=C1CCC(c2ccc(Cl)cc2)c2ccccc21 (stereo not given) |
| 122 to 123 °C | COc1ccc(C2(C#Cc3cccc(-c4nc(C)no4)c3)CCCC(=O)C2)cc1OC1CCCC1 (stereo not given) |
| 126 to 128 °C | Cc1cc2c(s1)N(C)c1ccccc1N=C2N1CCN(C)CC1 |
| 140 to 141 °C | CC=CCOc1cc(OC)cc(C(=O)OC)c1 |
| 170 to 171 °C | CN(C)N=Cc1cc(-n2c(=O)cc(C(F)(F)F)n(C)c2=O)ccc1Cl |
| 119 to 121 °C | CC(C)(C)OC(=O)CN1C(=O)C(=O)c2ccccc21 |
| 192 to 194 °C | COc1nc2cc(Cl)c(Cl)c(-n3c(CN(C)C)nnc3-c3cccnc3)c2nc1OC |
| 190 to 193 °C | CN1C(=O)[C@@](NC(=O)Nc2cccc(Nc3nnn[nH]3)c2)(C2CCCCC2)N=Cc2ccccc21 |
| 118 to 121 °C | Nc1cccc(-c2ccc(Cl)nn2)c1 |
| 164 °C | CC(=O)c1c(N2CCOCC2)nn2ccccc12 |
| 291 to 294 °C | COc1ccc(-c2cnc(C=NN3CC(=O)NC3=O)o2)cc1 |
